Data as given in ChEMBL document CHEMBL1132750, “The synthesis and biological evaluation of a novel series of phthalazine PDE4 inhibitors I” (Bioorg Med Chem Lett, 2000).

Columns and labels:
Phosphodiesterase 4 [1] = target: T1, Phosphodiesterase 4 (Homo sapiens, UniProt P27815+Q08499+Q07343+Q08493); test: Inhibition of Phosphodiesterase 4 from human neutrophils; format: protein assay
Phosphodiesterase 4 [2] = target: T1, Phosphodiesterase 4; test: Inhibition of rolipram binding to PDE4 from human neutrophils; format: protein assay
Rattus norvegicus = species: Rattus norvegicus; test: Increased acid secretion in isolated whole rat stomach; format: functional
Canis familiaris = test: Emetic effect in dogs after intravenous dose; format: functional; conditions: Canis lupus familiaris
Homo sapiens = species: Homo sapiens; test: Inhibition of TNF alpha synthesis in human monocytes; format: functional
Phosphodiesterase 4 [3] = target: T1, Phosphodiesterase 4; test: Inhibition of Phosphodiesterase 4 from human neutrophils at 10e-7 M; format: protein assay

SMILES	IC50 (Phosphodiesterase 4 [1])	Ki (Phosphodiesterase 4 [2])	IC50 (Rattus norvegicus)	ED50 (Canis familiaris)	IC50 (Homo sapiens)	inhibition (Phosphodiesterase 4 [3])
COc1ccc2c(Cc3c(Cl)cncc3Cl)nncc2c1OC1CCOC1 (centres undefined)	0.153 µM	0.286 µM				
COc1ccc(C2CNC(=O)C2)cc1OC1CCCC1 (centres undefined) [ROLIPRAM]			0.04 µM	0.3 µmol/kg	0.225 µM	
FC(F)Oc1ccc2c(Cc3c(Cl)cncc3Cl)nncc2c1OC1CCCC1	0.039 µM	0.046 µM			0.167 µM	
COc1ccc2c(Cc3c(Cl)cncc3Cl)nncc2c1C#CCCCc1ccccc1	0.01 µM	0.071 µM			0.03 µM	
COc1ccc2c(Nc3c(Cl)cncc3Cl)nncc2c1OC1CCCC1	0.059 µM	0.095 µM			0.187 µM	
COc1ccc2c(Cc3c(Cl)cncc3Cl)nncc2c1CCCCCc1ccccc1	0.03 µM	0.32 µM			0.103 µM	
COc1ccc2c(Cc3c(Cl)cncc3Cl)nncc2c1OCCCCCc1ccccc1	0.057 µM	0.013 µM			0.083 µM	
COc1ccc2c(Cc3c(Cl)cncc3Cl)n[n+]([O-])cc2c1OC1CCCC1	0.042 µM	0.121 µM			0.139 µM	
COc1ccc2c(Cc3c(Cl)cncc3Cl)nncc2c1/C=C/CCCc1ccccc1	0.019 µM	0.164 µM			0.052 µM	
COc1cc2cnnc(Cc3c(Cl)cncc3Cl)c2cc1OC1CCCC1	0.186 µM					
COc1ccc2c(Cc3c(Cl)cncc3Cl)nncc2c1OC1CCCC1	0.053 µM	0.149 µM	7 µM	> 10 µmol/kg	0.254 µM	
COc1ccc(C(=O)Nc2c(Cl)cncc2Cl)cc1OC1CCCC1			0.07 µM	1 µmol/kg	0.0013 µM	
COc1ccc2c(Cc3c(Cl)cncc3Cl)nncc2c1OC1Cc2ccccc2C1	0.03 µM	0.016 µM			0.252 µM	
COc1cc2cnnc(Nc3c(Cl)cncc3Cl)c2cc1OC1CCCC1						7%
